The source of these data is ChEMBL document CHEMBL1131667, “4-Phenylthiazole derivatives inhibit IL-6 secretion in osteoblastic cells and suppress bone weight loss in ovariectomized mice” (Bioorg Med Chem Lett, 1999).

In brackets after ≈: the same amount, converted by molar mass.

Test [1] can be described thus: Inhibition the IL-6 secretion stimulated at a concentration of 10 ng/ml in osteoblastic MC3T3-E 1 cells. The format is functional. To be noted: Mus musculus, MC3T3-E1.
In test [2] the test system is Mus musculus. In words: Effect on femoral weight loss in ovariectomized mice at a dose of 0.4 mg/kg/day, ip. The format is functional, organism-based.
Test [3] relates to Mus musculus. In words: Effect on femoral weight loss in ovariectomized mice at a dose of 2.0mg/kg/day, ip. Type of test: functional, organism-based.

Usually IC50 stands for the point on the concentration scale where inhibition reaches its midpoint. In the case of `CCCNC(=O)c1sc(N)nc1-c1ccccc1`, the IC50 in test [1] was 40 µg/mL (≈ 153 µM).
On the same count and under the same terms, to `COc1ccc(-c2nc(N)sc2C)cc1` belongs 7 µg/mL (≈ 31.8 µM); to `CCOC(=O)c1scnc1-c1ccccc1`, 30 µg/mL (≈ 129 µM).
In test [1], `Cc1sc(N)nc1-c1ccc(C(F)(F)F)cc1` displayed an IC50 of 3 µg/mL (≈ 11.6 µM).
The same measure, in the same setting: to `Nc1nc(-c2ccccc2)cs1` belongs 60 µg/mL (≈ 340 µM).
On the same count and under the same terms, for `Cc1ccc(-c2nc(N)sc2C)cc1` the value was 24 µg/mL (≈ 117 µM); for `Cc1sc(N)nc1-c1ccc(-c2ccccc2)cc1`, 39 µg/mL (≈ 146 µM); for `Cc1sc(N)nc1-c1ccc(Cl)cc1Cl`, 8 µg/mL (≈ 30.9 µM).
On the same count and under the same terms, to `CCc1sc(N)nc1-c1ccccc1` belongs over 100 µg/mL.
`Cc1sc(N)nc1-c1ccc(Cl)cc1` had a half-inhibitory concentration (IC50) in test [1] of 10 µg/mL (≈ 44.5 µM). Also, the Recovery in the test on Mus musculus [2] was 22.8%; in the test with Mus musculus [3], 57.8%.
The compound `Nc1nc(-c2ccccc2)c(C(=O)O)s1` gave a half-maximal inhibitory concentration (IC50) in test [1] of over 100 µg/mL.
`Cc1sc(N)nc1-c1ccc(Cl)c(Cl)c1` yielded a half-maximal inhibitory concentration (IC50) in test [1] of 35 µg/mL (≈ 135 µM).
In the case of `CCOC(=O)c1sc(-c2ccncc2)nc1-c1ccccc1`, 90 µg/mL (≈ 290 µM) corresponded to half-maximal inhibition in test [1] (IC50).
The same measure, in the same setting: to `CCOC(=O)c1sc(N)nc1-c1ccccc1` belongs 6 µg/mL (≈ 24.2 µM); to `Cc1sc(N)nc1-c1ccccc1`, 10 µg/mL (≈ 52.6 µM); to `CNc1sc(N)nc1-c1ccccc1`, 40 µg/mL (≈ 195 µM).
Still for that read-out and setting: to `Cc1sc(N)nc1-c1cccc(Cl)c1` belongs 2.5 µg/mL (≈ 11.1 µM); to `Cc1sc(N)nc1-c1ccc(F)cc1`, 27 µg/mL (≈ 130 µM).
`CCOC(=O)c1sc(NC=O)nc1-c1ccccc1` displayed a half-maximal inhibitory concentration (IC50) in test [1] of over 100 µg/mL.
Still for that read-out and setting: for `CCOC(=O)c1sc(NC)nc1-c1ccccc1` the value was 40 µg/mL (≈ 152 µM); for `CCOC(=O)c1sc(N)nc1-c1ccc(Cl)cc1`, 6 µg/mL (≈ 21.2 µM); for `CCOC(=O)c1sc(C)nc1-c1ccccc1`, 40 µg/mL (≈ 162 µM).
For `Nc1nc(-c2ccc(Cl)cc2)c(C(=O)O)s1`, the IC50 in test [1] amounted to 20 µg/mL (≈ 78.5 µM). In addition, the results for the Recovery with Mus musculus [2] and with Mus musculus [3] were 7.1% and 8.6%, respectively.
For `Cc1sc(N)nc1-c1ccc(O)cc1` the same measures were 1 µg/mL (≈ 4.85 µM), 13.9% and 35.5%.
As to `Cc1sc(N)nc1-c1ccccc1Cl`, in test [1], the IC50 was 50 µg/mL (≈ 223 µM).
